Laboratory results reported in the supplement of paper PMC4932681.

Assays:
BT-474 [1] = assay: relative IC50 (midpoint of fitted logistic curve, plateau may be below 50% inhibition; CellTiter-Glo viability); higher = less potent; details: 72 h
Outline: (§1)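 After seeding into 384-well plates with library drugs at five concentrations spanning a 10 000-fold range, breast cancer cell lines and their resistant derivatives were incubated 72 h at 37 °C. Resistant lines received medium with 1 μM of the selecting drug. CellTiter-Glo signal was read on a PHERAstar and scaled to vehicle-only and positive controls. Drug sensitivity score, relative IC50 (the curve midpoint) and top-dose inhibition came from logistic fits run in the Breeze pipeline.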

MCF-7 Tam1 [2] = assay: as above; details: 4-OH-tamoxifen in medium 1 µM; 72 h
Outline: as §1

T-47D Tam2 [3] = assay: as above; details: 4-OH-tamoxifen in medium 1 µM; 72 h
Outline: as §1

T-47D Tam1 [4] = assay: as above; details: 4-OH-tamoxifen in medium 1 µM; 72 h
Outline: as §1

T-47D [5] = assay: as above; details: 72 h
Outline: as §1

MCF-7 [6] = assay: as above; details: 72 h
Outline: as §1

BT-474 Tam1 [7] = assay: as above; details: 4-OH-tamoxifen in medium 1 µM; 72 h
Outline: as §1

ZR-75-1 Tam2 [8] = assay: as above; details: 4-OH-tamoxifen in medium 1 µM; 72 h
Outline: as §1

ZR-75-1 [9] = assay: as above; details: 72 h
Outline: as §1

BT-474 Tam2 [10] = assay: as above; details: 4-OH-tamoxifen in medium 1 µM; 72 h
Outline: as §1

ZR-75-1 Tam1 [11] = assay: as above; details: 4-OH-tamoxifen in medium 1 µM; 72 h
Outline: as §1

BT-474 [12] = assay: drug sensitivity score (DSS) (DSS (dimensionless)); higher = more sensitive; extreme values may be limits of the assay; details: 72 h
Outline: as §1

MCF-7 Tam1 [13] = assay: as above; details: 4-OH-tamoxifen in medium 1 µM; 72 h
Outline: as §1

T-47D Tam2 [14] = assay: as above; details: 4-OH-tamoxifen in medium 1 µM; 72 h
Outline: as §1

T-47D Tam1 [15] = assay: as above; details: 4-OH-tamoxifen in medium 1 µM; 72 h
Outline: as §1

T-47D [16] = assay: as above; details: 72 h
Outline: as §1

MCF-7 [17] = assay: as above; details: 72 h
Outline: as §1

BT-474 Tam1 [18] = assay: as above; details: 4-OH-tamoxifen in medium 1 µM; 72 h
Outline: as §1

ZR-75-1 Tam2 [19] = assay: as above; details: 4-OH-tamoxifen in medium 1 µM; 72 h
Outline: as §1

ZR-75-1 [20] = assay: as above; details: 72 h
Outline: as §1

BT-474 Tam2 [21] = assay: as above; details: 4-OH-tamoxifen in medium 1 µM; 72 h
Outline: as §1

ZR-75-1 Tam1 [22] = assay: as above; details: 4-OH-tamoxifen in medium 1 µM; 72 h
Outline: as §1

| SMILES | relative IC50 (BT-474 [1]; 4-OH-tamoxifen in medium 0 µM) | relative IC50 (BT-474 [1]; 4-OH-tamoxifen in medium 1 µM) | relative IC50 (MCF-7 Tam1 [2]) | relative IC50 (T-47D Tam2 [3]) | relative IC50 (T-47D Tam1 [4]) | relative IC50 (T-47D [5]; 4-OH-tamoxifen in medium 0 µM) | relative IC50 (T-47D [5]; 4-OH-tamoxifen in medium 1 µM) | relative IC50 (MCF-7 [6]; 4-OH-tamoxifen in medium 0 µM) | relative IC50 (MCF-7 [6]; 4-OH-tamoxifen in medium 1 µM) | relative IC50 (BT-474 Tam1 [7]) | relative IC50 (BT-474 Tam2 [10]) | relative IC50 (ZR-75-1 Tam2 [8]) | relative IC50 (ZR-75-1 [9]; 4-OH-tamoxifen in medium 0 µM) | relative IC50 (ZR-75-1 [9]; 4-OH-tamoxifen in medium 1 µM) | relative IC50 (ZR-75-1 Tam1 [11]) | drug sensitivity score (BT-474 [12]; 4-OH-tamoxifen in medium 0 µM) | drug sensitivity score (BT-474 [12]; 4-OH-tamoxifen in medium 1 µM) | drug sensitivity score (MCF-7 Tam1 [13]) | drug sensitivity score (T-47D Tam2 [14]) | drug sensitivity score (T-47D Tam1 [15]) | drug sensitivity score (T-47D [16]; 4-OH-tamoxifen in medium 0 µM) | drug sensitivity score (T-47D [16]; 4-OH-tamoxifen in medium 1 µM) | drug sensitivity score (MCF-7 [17]; 4-OH-tamoxifen in medium 0 µM) | drug sensitivity score (MCF-7 [17]; 4-OH-tamoxifen in medium 1 µM) | drug sensitivity score (BT-474 Tam1 [18]) | drug sensitivity score (ZR-75-1 Tam2 [19]) | drug sensitivity score (ZR-75-1 [20]; 4-OH-tamoxifen in medium 0 µM) | drug sensitivity score (ZR-75-1 [20]; 4-OH-tamoxifen in medium 1 µM) | drug sensitivity score (BT-474 Tam2 [21]) | drug sensitivity score (ZR-75-1 Tam1 [22]) |
| --- | --- | --- | --- | --- | --- | --- | --- | --- | --- | --- | --- | --- | --- | --- | --- | --- | --- | --- | --- | --- | --- | --- | --- | --- | --- | --- | --- | --- | --- | --- |
| Nc1nc(=O)c2c([nH]1)NCC(CNc1ccc(C(=O)N[C@@H](CCC(=O)O)C(=O)O)cc1)N2C=O (mixture of isomers) [Folinic acid] | > 990 µM | > 990 µM | > 990 µM | > 990 µM | > 990 µM | > 990 µM | > 990 µM | > 990 µM | > 990 µM | > 990 µM | > 990 µM | > 990 µM | > 990 µM | > 990 µM | > 990 µM | 0 | 0 | 0 | 0 | 0 | 0 | 0 | 0 | 0 | 0 | 0 | 0.942 | 0 | 0 | 0 |
| C[C@]12CC[C@H](O)CC1=CC[C@@H]1[C@@H]2CC[C@]2(C)C(c3cccnc3)=CC[C@@H]12 [Abiraterone (CB-7598)] | > 5 µM | > 5 µM | > 5 µM | > 5 µM | > 5 µM | > 5 µM | > 5 µM | > 5 µM | > 5 µM | > 5 µM | > 5 µM | > 5 µM | > 5 µM | > 5 µM | > 5 µM | 0 | 0 | 0 | 0 | 0 | 0 | 0 | 0 | 0 | 0 | 0 | 0 | 0 | 0 | 0 |
| CN(C)c1nc(N(C)C)nc(N(C)C)n1 [Altretamine] | > 10 µM | > 10 µM | > 10 µM | > 10 µM | 3.37 µM | > 10 µM | – | > 10 µM | – | > 10 µM | > 10 µM | > 10 µM | > 10 µM | > 10 µM | > 10 µM | 0 | 0 | 0 | 0 | 2.61 | 0 | 0.283 | 0 | 0.0496 | 0 | 0 | 0 | 0 | 0 | 0 |
| C[C@]12C=CC(=O)C=C1CC[C@@H]1[C@@H]2[C@@H](O)C[C@@]2(C)[C@H]1CC[C@]2(O)C(=O)CO [Prednisolone] | > 10 µM | > 10 µM | > 10 µM | > 10 µM | > 10 µM | > 10 µM | > 10 µM | – | – | > 10 µM | > 10 µM | > 10 µM | > 10 µM | > 10 µM | > 10 µM | 0 | 0 | 0 | 0 | 0 | 0 | 0 | 0.324 | 0.407 | 0 | 0 | 0 | 0 | 0 | 0 |
| Cn1cncc1[C@@](N)(c1ccc(Cl)cc1)c1ccc2c(c1)c(-c1cccc(Cl)c1)cc(=O)n2C [Tipifarnib  (Zarnestra)] | 0.817 µM | 1.65 µM | 1.51 µM | 0.877 µM | 0.862 µM | – | – | 0.277 µM | 0.329 µM | 1.5 µM | 1.41 µM | 0.808 µM | 0.606 µM | 0.405 µM | 0.762 µM | 4.27 | 6.99 | 3.82 | 4.67 | 6.21 | 3.25 | 0.489 | 11 | 12.6 | 7.78 | 6.76 | 6.34 | 7.52 | 7.37 | 7.03 |

Further lines, with some results ahead:

| relative IC50 (BT-474 [1]; 4-OH-tamoxifen in medium 0 µM) | relative IC50 (BT-474 [1]; 4-OH-tamoxifen in medium 1 µM) | relative IC50 (MCF-7 Tam1 [2]) | relative IC50 (T-47D Tam2 [3]) | relative IC50 (T-47D Tam1 [4]) | relative IC50 (T-47D [5]; 4-OH-tamoxifen in medium 0 µM) | relative IC50 (T-47D [5]; 4-OH-tamoxifen in medium 1 µM) | relative IC50 (MCF-7 [6]; 4-OH-tamoxifen in medium 0 µM) | relative IC50 (MCF-7 [6]; 4-OH-tamoxifen in medium 1 µM) | relative IC50 (BT-474 Tam1 [7]) | relative IC50 (BT-474 Tam2 [10]) | SMILES | relative IC50 (ZR-75-1 Tam2 [8]) | relative IC50 (ZR-75-1 [9]; 4-OH-tamoxifen in medium 0 µM) | relative IC50 (ZR-75-1 [9]; 4-OH-tamoxifen in medium 1 µM) | relative IC50 (ZR-75-1 Tam1 [11]) | drug sensitivity score (BT-474 [12]; 4-OH-tamoxifen in medium 0 µM) | drug sensitivity score (BT-474 [12]; 4-OH-tamoxifen in medium 1 µM) | drug sensitivity score (MCF-7 Tam1 [13]) | drug sensitivity score (T-47D Tam2 [14]) | drug sensitivity score (T-47D Tam1 [15]) | drug sensitivity score (T-47D [16]; 4-OH-tamoxifen in medium 0 µM) | drug sensitivity score (T-47D [16]; 4-OH-tamoxifen in medium 1 µM) | drug sensitivity score (MCF-7 [17]; 4-OH-tamoxifen in medium 0 µM) | drug sensitivity score (MCF-7 [17]; 4-OH-tamoxifen in medium 1 µM) | drug sensitivity score (BT-474 Tam1 [18]) | drug sensitivity score (ZR-75-1 Tam2 [19]) | drug sensitivity score (ZR-75-1 [20]; 4-OH-tamoxifen in medium 0 µM) | drug sensitivity score (ZR-75-1 [20]; 4-OH-tamoxifen in medium 1 µM) | drug sensitivity score (BT-474 Tam2 [21]) | drug sensitivity score (ZR-75-1 Tam1 [22]) |
| --- | --- | --- | --- | --- | --- | --- | --- | --- | --- | --- | --- | --- | --- | --- | --- | --- | --- | --- | --- | --- | --- | --- | --- | --- | --- | --- | --- | --- | --- | --- |
| 0.0607 µM | 0.267 µM | 0.147 µM | 0.227 µM | 0.0399 µM | 0.0611 µM | 0.423 µM | 0.0484 µM | 0.13 µM | 0.378 µM | 0.399 µM | COc1ccc(-c2ccc3c(N4CCOC[C@@H]4C)nc(N4CCOC[C@@H]4C)nc3n2)cc1CO [AZD8055] | 0.0185 µM | 0.0313 µM | 0.0123 µM | 0.0389 µM | 11.8 | 13.6 | 6.06 | 10.2 | 17.1 | 16.7 | 8.08 | 20.2 | 11.5 | 12.7 | 19.8 | 18.4 | 17.4 | 8.38 | 16.2 |
| – | 1.04 µM | > 10 µM | 1.08 µM | 1.12 µM | – | – | 0.369 µM | 0.553 µM | 1.78 µM | 0.857 µM | C=CCn1c(=O)c2cnc(Nc3ccc(N4CCN(C)CC4)cc3)nc2n1-c1cccc(C(C)(C)O)n1 [MK-1775] | > 10 µM | – | – | > 10 µM | 2.85 | 4.97 | 0 | 4.14 | 4.22 | 2.12 | 1.93 | 7.89 | 5.16 | 3.33 | 0 | 0.795 | 0.472 | 2.77 | 0 |
